Laboratory results: patent publication US6528517B1, “Synthesis of quinobenzoxazine analogues with topoisomerase II and quadruplex interactions for use as antineoplastic agents” (Board of Regents, The University of Texas System, priority 1998, dated 2003)

Key:
[1] = test system: prostate cell line DU-145; assay: Cytotoxicity of III in combination with Norfloxacin; type: cell-based; settings: given alone
Procedure: FIG. 11. Effect of increasing concentrations of Norfloxacin on the cytotoxic effect of QQ58, compound III in FIG. 2 in the prostate cell line DU-145. Compound III was either given alone (●) or in combination with Norfloxacin at concentrations of 2.58 (♦), 19.37 (♦), or 87.33 (▪) μg/ml. For additions of 2.58 and 19.37 μ/ml of Norfloxacin, the IC50 of compound III was increased by approximately 14- and 20-fold.
Exponentially growing cells in 0.1 ml medium were seeded on Day 0 in 96-well microtiter plates. On Day 1, 0.1-ml aliquots of medium containing graded concentrations test agent were added in duplicate to the cell plates. After incubation at 37° C. in a humidified incubator, the plates were centrifuged briefly (1-2 min at 1000 rpm), and 100 μl of the growth medium was removed. Cell cultures were incubated with 50 μl of 3-(4,5-dimethylthiazyl-2-yl)-2,5-diphenyltetrazolium bromide MTT, 1 mg/ml in Dubecco's PBS for 4 h at 37° C. […] Absorbance was quantitated using a Bio-Rad Model 3550 microplate reader at a test wavelength of 570 nm and a reference wavelength of 630 nm. Absorbance values were transferred to a 486 personal computer, and the IC50 values were determined using the computer program EZ-ED50 (Chen et al., 1993).
In separate studies, the IC50 of III and the IC10, IC20, and IC50 of Norfloxacin were determined for DU-145, a prostate cell line.

topo II-DNA complex [2] = molecular target: T1, topo II-DNA complex (Drosophila melanogaster, UniProt P15348); assay: Psorospermin competition study (DNA strand breakage assay); type: biochemical; settings: 0.5-10 μM drug, psorospermin, topo II present
T1 construct: purchased Amersham
T1 sequence (P15348 1-1447): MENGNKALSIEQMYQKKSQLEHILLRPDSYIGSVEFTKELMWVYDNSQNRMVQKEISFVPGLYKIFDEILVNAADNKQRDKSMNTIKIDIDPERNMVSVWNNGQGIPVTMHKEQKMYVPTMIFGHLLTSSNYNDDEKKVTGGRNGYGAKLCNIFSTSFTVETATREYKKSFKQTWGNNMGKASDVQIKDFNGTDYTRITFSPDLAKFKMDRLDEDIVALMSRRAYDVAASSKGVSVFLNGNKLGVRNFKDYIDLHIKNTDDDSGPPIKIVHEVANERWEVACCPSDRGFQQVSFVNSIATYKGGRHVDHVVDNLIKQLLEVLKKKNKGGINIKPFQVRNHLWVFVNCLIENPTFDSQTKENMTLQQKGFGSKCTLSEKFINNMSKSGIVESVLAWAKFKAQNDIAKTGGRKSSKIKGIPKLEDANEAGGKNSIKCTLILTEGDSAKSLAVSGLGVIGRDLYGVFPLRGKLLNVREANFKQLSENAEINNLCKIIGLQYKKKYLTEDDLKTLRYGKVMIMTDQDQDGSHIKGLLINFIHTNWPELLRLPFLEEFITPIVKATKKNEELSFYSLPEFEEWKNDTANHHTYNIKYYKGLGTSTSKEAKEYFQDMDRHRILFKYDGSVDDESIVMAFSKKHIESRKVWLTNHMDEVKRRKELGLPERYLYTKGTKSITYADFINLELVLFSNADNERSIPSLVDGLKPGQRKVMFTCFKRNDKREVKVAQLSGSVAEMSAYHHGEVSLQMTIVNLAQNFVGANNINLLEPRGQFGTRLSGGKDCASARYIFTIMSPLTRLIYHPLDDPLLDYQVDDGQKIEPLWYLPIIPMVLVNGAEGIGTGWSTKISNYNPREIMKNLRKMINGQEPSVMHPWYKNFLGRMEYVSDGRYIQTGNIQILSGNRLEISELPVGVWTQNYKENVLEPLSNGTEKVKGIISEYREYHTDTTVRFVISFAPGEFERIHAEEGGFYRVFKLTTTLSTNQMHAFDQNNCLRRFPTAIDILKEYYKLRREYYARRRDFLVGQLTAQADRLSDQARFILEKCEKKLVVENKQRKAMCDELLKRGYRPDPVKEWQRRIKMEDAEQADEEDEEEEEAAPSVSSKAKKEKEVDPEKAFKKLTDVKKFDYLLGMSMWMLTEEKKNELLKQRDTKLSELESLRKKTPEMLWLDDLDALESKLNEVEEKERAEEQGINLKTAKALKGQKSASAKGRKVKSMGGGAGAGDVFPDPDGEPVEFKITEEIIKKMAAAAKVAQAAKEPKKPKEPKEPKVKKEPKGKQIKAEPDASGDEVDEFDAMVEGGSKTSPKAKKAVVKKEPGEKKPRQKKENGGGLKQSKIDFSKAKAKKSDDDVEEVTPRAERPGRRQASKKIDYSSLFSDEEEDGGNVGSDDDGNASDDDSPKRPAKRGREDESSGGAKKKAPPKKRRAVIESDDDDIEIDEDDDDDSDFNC
Procedure: 5′^32P-labeled DNA was incubated with Drosophila topo II in the same buffer as the one in the topo II cleavage reaction in the presence of various amounts of either A-62176, Norfloxacin, or both. The incubation reactions took place at 30° C. for 10 min before 10 μM (final concentration) of psorospermin was added to the mixtures. The reactions were continued for an additional 5 min and then terminated by adding 5 μg of calf thymus DNA, followed by heating at 95° C. for 15 min. In the presence of piperidine, this procedure induces strand breakage at the drug modification sites (Hansen et al., 1996). The samples were subjected to phenol/chloroform extraction followed by ethanol precipitation.
In the presence of topo II, the reactivity of psorospermin is enhanced more than 40-fold with the guanine at the +4′ position at site B in FIG. 7 (Kwok et al., 1998a and 1998b). A DNA strand breakage assay was used to locate the position of alkylation of DNA by the epoxide of psorospermin upon intercalation to the base pairs between the +1 and +2 positions at site B within the topo II-DNA complex (Kwok et al., 1998a). Psorospermin has subsequently been used to probe the binding sites for m-AMSA (Kwok et al., 1998a). In the present study, this same assay was performed to determine the binding site of A-62176 on DNA in the presence of topo II.

[3] = test system: human DNA G-quadruplex d(TTAGGG)4; assay: NMR imino proton titration with G-quadruplex DNA; type: binding; settings: overall stoichometry 1:1
Procedure: (C) Compounds may be selected for their ability to interact with human DNA G-quadruplex as indicated by NMR spectroscopy. The imino proton spectrum (9-12 ppm) of a solution of d(TTAGGG)4 in D2O/H2O (10:90) was determined at 500 MHz. Aliquot of N,N′-bis(2-piperdinoethyl)-3,4,9,10-perylenetetracarboxylic acid diimide were added and the imino proton spectrum recorded.

topo II-DNA complex [4] = molecular target: T1, topo II-DNA complex; settings: cited from earlier work

In the case of `CCn1cc(C(=O)O)c(=O)c2cc(F)c(N3CCNCC3)cc21` [Norfloxacin], the “potency relative to III (fold less potent)” value [1] was “at least 1000 fold” and the “psorospermin alkylation at site B (competition)” value (topo II-DNA complex [2]) was “no competition”.
With `O=C1c2ccc3c4ccc5c6c(ccc(c7ccc(c2c37)C(=O)N1CCN1CCCCC1)c64)C(=O)N(CCN1CCCCC1)C5=O` [N,N′-bis(2-piperdinoethyl)-3,4,9,10-perylenetetracarboxylic acid diimide] the “upfield shift of G6 imino resonance” value [3] was > 0.2 ppm.
In the case of `COc1cc2c(c3oc4c(O)cccc4c(=O)c13)C[C@H]([C@@]1(C)CO1)O2` [Psorospermin], the “enhancement of reactivity with guanine at +4′ position of site B in the presence of topo II” value (topo II-DNA complex [4]) is given as “more than 40 fold”.
